Measurements: publication PMC10058022, “Physico-Chemical Study of Mn(II), Co(II), Cu(II), Cr(III), and Pd(II) Complexes with Schiff-Base and Aminopyrimidyl Derivatives and Anti-Cancer, Antioxidant, Antimicrobial Applications” (Molecules, 2023)
In brackets after ≈: the same amount, converted by molar mass.

What was measured:
Aspergillus fumigatus = experiment: Antifungal screening, diffusion agar technique; type: cell-based; settings: RCMB002008; Aspergillus fumigatus (RCMB 002008); well 6.0 mm, 100 μL tested; three replicates; ketoconazole 100 μg/mL
Experimental: (§1) The complexes were tested in vitro using a diffusion agar technique; well diameter: 6.0 mm (100 μL tested) on four fungi (Aspergillus fumigatus (RCMB 002008), Candida albicans (RCMB 005003 (1) ATCC 10231), Cryptococcus neoformas (RCMB 0049001) and Syncephalastrum racemosum (RCMB 016001 (1)). The positive control was a fungicide (ketoconazole, 100 μg/mL) as well as four bacteria, two Gram-positive strains (Staphylococcus aureus (ATCC 25923) and Bacillus subtilis (RCMB 015 (1) NRRL B-543)), and two Gram-negative strains (Escherichia coli (ATCC 25922) and Proteus Vulgaris (RCMB 004 (1) ATCC 13315)). The positive control was Streptococcus (gentamycin, 4 μg/mL). The inhibitory activity of a compound against an organism is indicated by a clear area around the disc.

Candida albicans = experiment: Antifungal screening, diffusion agar technique; type: cell-based; settings: ATCC10231; Candida albicans (ATCC 10231); well 6.0 mm, 100 μL tested; three replicates; ketoconazole 100 μg/mL
Experimental: as §1

[1] = tested on: Syncephalastrum racemosum; experiment: Antifungal screening, diffusion agar technique; type: cell-based; settings: RCMB016001; Syncephalastrum racemosum (RCMB 016001); well 6.0 mm, 100 μL tested; three replicates; ketoconazole 100 μg/mL
Experimental: as §1

Cryptococcus neoformas = experiment: Antifungal screening, diffusion agar technique; type: cell-based; settings: RCMB0049001; Cryptococcus neoformas (RCMB 0049001); well 6.0 mm, 100 μL tested; three replicates; ketoconazole 100 μg/mL
Experimental: as §1

Bacillus subtilis = experiment: Antibacterial screening, diffusion agar technique; type: cell-based; settings: Bacillus subtilis (NRRL B-543), Gram-positive; well 6.0 mm, 100 μL tested; three replicates; gentamycin 4 μg/mL
Experimental: as §1

Escherichia coli = experiment: Antibacterial screening, diffusion agar technique; type: cell-based; settings: Escherichia coli (ATCC 25922), Gram-negative; well 6.0 mm, 100 μL tested; three replicates; gentamycin 4 μg/mL
Experimental: as §1

Staphylococcus aureus = experiment: Antibacterial screening, diffusion agar technique; type: cell-based; settings: Staphylococcus aureus (ATCC 25923), Gram-positive; well 6.0 mm, 100 μL tested; three replicates; gentamycin 4 μg/mL
Experimental: as §1

Proteus vulgaris = experiment: Antibacterial screening, diffusion agar technique; type: cell-based; settings: Proteus vulgaris (ATCC 13315), Gram-negative; well 6.0 mm, 100 μL tested; three replicates; gentamycin 4 μg/mL
Experimental: as §1

[2] = DPPH free radical scavenging assay; settings: DPPH 0.004% w/v in methanol, absorbance 515 nm, 16 min, three replicates
Experimental: The antioxidant activity of the extract was determined at the Regional Center for Mycology and Biotechnology (RCMB) at Al-Azhar University by the DPPH free radical scavenging assay in triplicate, and average values were considered.
Freshly prepared (0.004% w/v) methanol solution of 2,2-diphenyl-1-picrylhydrazyl (DPPH) radical was prepared and stored at 10 °C in the dark. A methanol solution of the test compound was prepared. About 40 uL aliquot of the methanol solution was added to 3 mL of DPPH solution. Absorbance measurements were recorded immediately with a UV-visible spectrophotometer (Milton Roy, Spectronic 1201). The decrease in absorbance at 515 nm was determined continuously, with data being recorded at 1 min intervals until the absorbance stabilized (16 min). The absorbance of the DPPH radical without antioxidant (control) and the reference compound ascorbic acid were also measured. All the determinations were performed in three replicates and averaged. The percentage inhibition (PI) of the DPPH radical was calculated according to the formula:PI = [{(AC − AT)/AC} × 100] where AC = absorbance of the control at t = 0 min and AT = absorbance of the sample + DPPH at t = 16 min. A 50% inhibitory concentration (IC50) or the concentration required for 50% DPPH radical scavenging activity was calculated.

[3] = tested on: A-549 cells (human lung cancer cell line); experiment: Cytotoxicity against A-549 cells (crystal violet colorimetric viability, 72 h); type: cell-based; settings: A-549 human lung cancer cell line, 72 h exposure, average of three independent experiments
Experimental: Cancer is a type of malignant disease in which a group of cells appears to grow in an irregular pattern. The only way to treat this is through surgical intervention or chemotherapy, both of which have negative side effects. Although platinum-based complexes such as cis-platin have been used to treat cancer, it is not effective, so in vitro tests for complexes of manganese, cobalt, copper, chromium, and palladium were conducted against two cancer lines, respectively. A-549 and MRC-5 cells were used as test subjects for the cytotoxic activity of Schiff base and aminopyrimidyl complexes in the concentration range of […]. […] As the concentration of the complexes increased, cell viability decreased (Figure 10).
Figure 10 (a) A-549. The dose-response curves of the cytotoxicity of compounds (1–6). Cells were exposed to different concentrations of the compounds for 72 h. Cell viability was determined by a colorimetric method. (b) MRC-5cell lines. The dose-response curves of the cytotoxicity of compounds (1–6) Cells were exposed to different concentrations of the compounds for 72 h. Cell viability was determined by a colorimetric method.
A-549 cells (human Lung cancer cell line) were obtained from VACSERA Tissue Culture Unit.
It is composed of 0.5% (w/v) crystal violet and 50% methanol then made up to volume with ddH2O and filtered through a Whatmann No.1 filter paper. […]

CC(=O)N1CCN(c2ccc(OCC3COC(Cn4ccnc4)(c4ccc(Cl)cc4Cl)O3)cc2)CC1 (stereo not shown) [Ketoconazole, reference compound]
zone of inhibition at 100 µg/mL (Aspergillus fumigatus): 17.4 mm | zone of inhibition at 100 µg/mL (Candida albicans): 20.4 mm | zone of inhibition at 100 µg/mL [1]: 15.3 mm | zone of inhibition at 100 µg/mL (Cryptococcus neoformas): 24.9 mm

Gentamycin [reference compound]
Mean Zone of Inhibition (Bacillus subtilis): 25.93 mm | Mean Zone of Inhibition (Escherichia coli): 29.83 mm | Mean Zone of Inhibition (Staphylococcus aureus): 24.33 mm | Mean Zone of Inhibition (Proteus vulgaris): 25.20 mm

O=C1O[C@H]([C@@H](O)CO)C(O)=C1O [Ascorbic acid, reference compound]
IC50 (antioxidant activity, DPPH radical scavenging) [2]: 10210 ± 770 µg/mL (≈ 58 mM)

N.N.[Cl][Pt][Cl] [cisplatin, reference compound]
IC50 Value [3]: 7.11 µg/mL
